We go through 66 compounds from BindingDB's records for patent US10941160 (Celgene Quanticel Research, 2021).

The target in the assay is Bromodomain-containing protein 4 (Homo sapiens, UniProt O60885). Briefly: In Vitro Enzyme Inhibition Assay. The method, then:
His-tagged BRD4 was cloned, expressed and purified to homogeneity. BRD4 binding and inhibition was assessed by monitoring the interaction of biotinylated H4-tetraacetyl peptide (AnaSpec, H4K5/8/12/16(Ac), biotin-labeled) with the target using the AlphaScreen technology ([…]). […] After 20 min incubation at room temp, Alpha streptavidin donor beads and Nickel Chelate acceptor beads were added to a final concentration of 5 μg/mL.
Consider `CCS(O)(O)c1ccc(NCC2CC2)c(-c2cn(C)c(=O)c3cc(F)ccc23)c1` [US10941160, Example 195], for which the IC50 (as a rule, the concentration that gives 50% inhibition) is less than 0.5 µM.

In turn, `COc1ccc(-c2cn(C)c(=O)c3cnccc23)cc1S(N)(O)O` [US10941160, Example 56] gave an IC50 of more than 5 µM.

`CCS(O)(O)c1ccc(Oc2ccc(F)cc2F)c(-c2cn(C)c(=O)c3cncn23)c1` [US10941160, Example 376] gave an IC50 of less than 0.5 µM.

In turn, `CCCOc1ccc(S(O)(O)CC)cc1-c1cn(C)c(=O)c2cnc(-c3cnn(C)c3)nc12` [US10941160, Example 225] showed an IC50 of less than 0.5 µM.

In turn, `CCS(O)(O)c1ccc(Oc2ccc(F)cc2F)c(-c2cc(F)c(=O)n(C)c2)c1` [US10941160, Example 121] yielded an IC50 of less than 0.5 µM.

Turning to `CCC#CCOc1ccc(S(O)(O)CC)cc1-c1cc(OC)c(=O)n(C)c1` [US10941160, Example 390], the IC50 was less than 0.5 µM.

As to `CCS(O)(O)c1ccc(OCC2CC2)c(-c2cn(C)c(=O)c3ccccc23)c1` [US10941160, Example 135], the concentration for half-maximal inhibition (IC50) was less than 0.5 µM.

On to `CCS(O)(O)c1ccc(OCC2CC2)c(-c2cn(C)c(=O)c3c2CCCC3)c1` [US10941160, Example 219], for which the IC50 was less than 0.5 µM.

`CCS(O)(O)c1ccc(Nc2ccc(F)cc2F)c(-c2cc(C)c(=O)n(C)c2)c1` [US10941160, Example 396] showed an IC50 of less than 0.5 µM.

Consider `COc1ccc2c(=O)n(C)cc(-c3cc(S(O)(O)C(C)C)ccc3OCC3CC3)c2c1` [US10941160, Example 393], for which the IC50 is less than 0.5 µM.

As to `CCS(O)(O)c1ccc(OCC2CC2)c(-c2cn(C)c(=O)c3occc23)c1` [US10941160, Example 252], the IC50 is less than 0.5 µM.

The compound `CCS(O)(O)c1ccc(OCC#CC2CC2)c(-c2cc(OC)c(=O)n(C)c2)c1` [US10941160, Example 391] registered an IC50 of less than 0.5 µM.

On to `CCS(O)(O)c1ccc(OCC2CC2)c(-c2cc(C)c(=O)n(C3CC3)c2)c1` [US10941160, Example 251], for which the IC50 was less than 0.5 µM.

As to `CCS(O)(O)c1ccc(OCC2CC2)c(-c2cc(OC)c(=O)n(C)c2)c1` [US10941160, Example 399], the IC50 is less than 0.5 µM.

Consider `CCS(O)(O)c1ccc(OCC2CC2)c(-c2cc(NC)c(=O)n(C)c2)c1` [US10941160, Example 409], for which the IC50 was less than 0.5 µM.

On to `COc1ccc(-c2cn(C)c(=O)c3ccccc23)cc1S(N)(O)O` [US10941160, Example 16], for which the IC50 entry was “in the range around 2.75 µM”.

For the compound `Cn1cc(-c2cccc(S(O)(O)NC3CC3)c2)c2ccccc2c1=O` [US10941160, Example 6], the concentration for half-maximal inhibition (IC50) entry is “in the range around 2.75 µM”.

Consider `CCS(O)(O)c1ccc(NCC2CC2)c(-c2cc(NC)c(=O)n(C)c2)c1` [US10941160, Example 408], for which the half-maximal inhibitory concentration (IC50) is less than 0.5 µM.

Compound `CCS(O)(O)c1cnc(OCC2CC2)c(-c2cn(C)c(=O)c3ccccc23)c1` [US10941160, Example 322] returned an IC50 of less than 0.5 µM.

`CCS(O)(O)c1ccc(OCC2CC2)c(-c2cn(C)c(=O)c3cncnc23)c1` [US10941160, Example 232] yielded an IC50 of less than 0.5 µM.

In the case of `C#Cc1cc(-c2cc(S(O)(O)CC)ccc2OCC2CC2)cn(C)c1=O` [US10941160, Example 284], the IC50 was less than 0.5 µM.

As to `CCS(O)(O)c1ccc(OCC2CC2)c(-c2cn(C)c(=O)c3cnc(-c4cnn(C)c4)nc23)c1` [US10941160, Example 226], the IC50 was less than 0.5 µM.

`CCS(O)(O)c1ccc(NCC2CC2)c(-c2cc(OC)c(=O)n(C)c2)c1` [US10941160, Example 414] yielded a half-maximal inhibitory concentration (IC50) of less than 0.5 µM.

`CCS(O)(O)c1ccc(OCC2CC2)c(-c2cc(F)c(=O)n(C)c2)c1` [US10941160, Example 274] registered a concentration for half-maximal inhibition (IC50) of less than 0.5 µM.

Consider `CCS(O)(O)c1ccc(OCC2CC2)c(-c2cc(Cl)c(=O)n(C)c2)c1` [US10941160, Example 272], for which the IC50 is less than 0.5 µM.

In turn, `CCS(O)(O)c1ccc(OC)c(-c2cn(C)c(=O)c3ccc(-c4cn[nH]c4)cc23)c1` [US10941160, Example 210] yielded an IC50 of less than 0.5 µM.

For the compound `CCS(O)(O)c1ccc(OCC2CC2)c(-c2cc(OCC(F)(F)F)c(=O)n(C)c2)c1` [US10941160, Example 288], the IC50 is less than 0.5 µM.

The compound `CCOc1ccc(S(N)(O)O)cc1-c1ccc(=O)n(C)c1` [US10941160, Example 117] came in with an IC50 of less than 0.5 µM.

For `CCNS(O)(O)c1cccc(-c2cn(C)c(=O)c3cnccc23)c1` [US10941160, Example 53], the IC50 result was “in the range around 2.75 µM”.

`CCS(O)(O)c1ccc(OC2CCC(F)(F)CC2)c(-c2cn(C)c(=O)c3cncn23)c1` [US10941160, Example 373] returned a half-maximal inhibitory concentration (IC50) of less than 0.5 µM.

As for `CCS(O)(O)c1cccc(-c2cn(C)c(=O)c3ccncc23)c1` [US10941160, Example 126], the IC50 is more than 5 µM.

With `CCNS(O)(O)c1cccc(-c2cn(C)c(=O)c3cc(F)ccc23)c1` [US10941160, Example 59], the IC50 result was “in the range around 2.75 µM”.

`CCS(O)(O)c1ccc(O)c(-c2cn(C)c(=O)c3ccc(-c4cnn(C)c4)cc23)c1` [US10941160, Example 80]: the IC50 is less than 0.5 µM.

For `CC#CCOc1ccc(S(O)(O)CC)cc1-c1cn(C)c(=O)c2ccccc12` [US10941160, Example 185], the IC50 is less than 0.5 µM.

In turn, `CCS(O)(O)c1ccc(OCC2CC2)c(-c2cn(C)c(=O)c3oc(C)cc23)c1` [US10941160, Example 270] came in with an IC50 of less than 0.5 µM.

The compound `Cn1cc(-c2nc(N3CCC[SH]3(=O)O)ncc2OCC2CC2)c2ccccc2c1=O` [US10941160, Example 156] registered an IC50 of less than 0.5 µM.

`CCS(O)(O)c1ccc(NC2CCC(F)(F)CC2)c(-c2cc(C)c(=O)n(C)c2)c1` [US10941160, Example 397] showed an IC50 of less than 0.5 µM.

`Cc1cc(-c2cc(S(O)(O)C(C)C)ccc2OCC2CC2)cn(C)c1=O` [US10941160, Example 394]: the IC50 was less than 0.5 µM.

Compound `CCS(O)(O)c1ccc(OCC2CC2)c(-c2cc(C3CC3)c(=O)n(C)c2)c1` [US10941160, Example 280] registered an IC50 of less than 0.5 µM.

With `CCS(O)(O)c1ccc(OCC2CC2)c(-c2cn(C)c(=O)c3ccc(-c4cnn(C)c4)cc23)c1` [US10941160, Example 82], the IC50 was less than 0.5 µM.

The compound `CCCCc1cnc(NS(O)(O)CC)nc1-c1cc(OC)c(=O)n(C)c1` [US10941160, Example 362] registered an IC50 of less than 0.5 µM.

Consider `Cn1cc(-c2cccc(S(N)(O)O)c2)c2ccc(F)cc2c1=O` [US10941160, Example 61], for which the IC50 was less than 0.5 µM.

With `CCS(O)(O)c1ccc(NCC2CC2)c(-c2cn(C)c(=O)c3cncn23)c1` [US10941160, Example 375], the IC50 was less than 0.5 µM.

`CCS(O)(O)c1ccc(NCC2CC2)c(-c2cn(C)c(=O)c3ccccc23)c1` [US10941160, Example 193] returned an IC50 of less than 0.5 µM.

`Cn1cc(-c2cc(S(N)(O)O)ccc2Oc2ccc(F)cc2F)ccc1=O` [US10941160, Example 118]: the concentration for half-maximal inhibition (IC50) was less than 0.5 µM.

As for `CCS(O)(O)Nc1cc(OCc2ccccc2)cc(-c2cc(C)c(=O)n(C)c2)c1` [US10941160, Example 395], the IC50 is less than 0.5 µM.

For `COc1ccc(S(O)(O)CCO)cc1-c1cn(C)c(=O)c2ccc(-c3cnn(C)c3)cc12` [US10941160, Example 208], the IC50 was less than 0.5 µM.

Regarding `CCS(O)(O)c1cccc(-c2cn(C)c(=O)c(N)n2)c1` [US10941160, Example 105], the IC50 is more than 5 µM.

For `CCS(O)(O)c1ccc(OCC2CC2)c(-c2cn(C)c(=O)c3ccccc23)n1` [US10941160, Example 206], the IC50 was less than 0.5 µM.

The compound `COc1ccc(-c2cn(C)c(=O)c3cnccc23)cc1S(O)(O)NCc1ccccc1` [US10941160, Example 54] had an IC50 of more than 5 µM.

In the case of `CCS(O)(O)Nc1cc(Oc2ccc(F)cc2F)cc(-c2cc(C)c(=O)n(C)c2)c1` [US10941160, Example 342], the IC50 was less than 0.5 µM.

For `CCS(O)(O)c1ccc(OCC2CC2)c(-c2cn(C)c(=O)c3sc(C(N)=O)cc23)c1` [US10941160, Example 265], the IC50 is less than 0.5 µM.

`CCS(O)(O)c1ccc(OC2CCCC2)c(-c2cn(C)c(=O)c3cncn23)c1` [US10941160, Example 374] registered a 50% inhibitory concentration (IC50) of less than 0.5 µM.

The compound `CCS(O)(O)c1ccc(OCC2CC2)c(-c2cn(C)c(=O)c3c2OCCN3)c1` [US10941160, Example 366] gave an IC50 of less than 0.5 µM.

On to `CCS(O)(O)c1ccc(OCC2CC2)c(-c2cc(OC(F)F)c(=O)n(C)c2)c1` [US10941160, Example 287], for which the IC50 was less than 0.5 µM.

Take `CCS(O)(O)c1cccc(-c2cc(N)c(=O)n(C)c2)c1` [US10941160, Example 108]: the IC50 is more than 5 µM.

Compound `CCS(O)(O)c1ccc(OCC2CC2)c(-c2cn(C)c(=O)c3ccoc23)c1` [US10941160, Example 378] yielded an IC50 of less than 0.5 µM.

For `CC#CCOc1ccc(S(O)(O)CC)cc1-c1cc(OC)c(=O)n(C)c1` [US10941160, Example 389], the IC50 was less than 0.5 µM.

Regarding `CCS(O)(O)c1ccc(OCC2CC2)c(-c2cn(C)c(=O)c3cncn23)c1` [US10941160, Example 368], the IC50 was less than 0.5 µM.

`CC(C)S(O)(O)c1ccc(OCC2CC2)c(-c2cn(C)c(=O)c3ccccc23)c1` [US10941160, Example 364] gave a 50% inhibitory concentration (IC50) of less than 0.5 µM.

`CCS(O)(O)Cc1ccc(OCC(F)(F)F)c(-c2cc(C)c(=O)n(C)c2)c1` [US10941160, Example 411] displayed an IC50 of less than 0.5 µM.

`CCS(O)(O)c1cccc(-c2cn(C)c(=O)c3cncn23)c1` [US10941160, Example 133] yielded an IC50 of more than 5 µM.

`CCS(O)(O)c1ccc(OCC2CC2)c(-c2cn(C)c(=O)c3ccc(F)cc23)c1` [US10941160, Example 174]: the IC50 is less than 0.5 µM.

As to `Cn1cc(-c2cccc(S(N)(O)O)c2)c2ccncc2c1=O` [US10941160, Example 55], the IC50 is more than 5 µM.

With `CCCCc1cnc(NS(O)(O)CC)nc1-c1cc(C)c(=O)n(C)c1` [US10941160, Example 310], the IC50 is less than 0.5 µM.

Regarding `CCOc1ccc(S(O)(O)CC)cc1-c1cn(C)c(=O)c2cnc(-c3cnn(C)c3)nc12` [US10941160, Example 227], the IC50 was less than 0.5 µM.
